Data from the supplement of paper PMC10307832.

Assays:
Experiment in all cases: relative viability (nuclei count vs DMSO), 5 days (fraction); higher = more cells survive
ABC-1 = test system: ABC-1
How it was run: (§1)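 Medians of duplicate plates are given as relative viability. That measure is the nuclei count in treated wells divided by the count in vehicle wells. Counts were taken on 4× images of lung cancer cell lines in 1536-well plates, 5 days after pin-tool dosing the day after seeding with one drug alone or a fixed anchor-drug dose plus five library-drug doses (not always all listed) in √10 steps.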

COR-L23 = test system: COR-L23
How it was run: as §1

EPLC-272H = test system: EPLC-272H
How it was run: as §1

HARA = test system: HARA
How it was run: as §1

HCC-15 = test system: HCC-15
How it was run: as §1

HCC-44 = test system: HCC-44
How it was run: as §1

HOP-62 = test system: HOP-62
How it was run: as §1

LC-2-ad = test system: LC-2-ad
How it was run: as §1

LU99A = test system: LU99A
How it was run: as §1

NCI-H1355 = test system: NCI-H1355
How it was run: as §1

NCI-H1651 = test system: NCI-H1651
How it was run: as §1

NCI-H1915 = test system: NCI-H1915
How it was run: as §1

NCI-H1993 = test system: NCI-H1993
How it was run: as §1

NCI-H2023 = test system: NCI-H2023
How it was run: as §1

NCI-H2085 = test system: NCI-H2085
How it was run: as §1

NCI-H2126 = test system: NCI-H2126
How it was run: as §1

NCI-H2347 = test system: NCI-H2347
How it was run: as §1

NCI-H650 = test system: NCI-H650
How it was run: as §1

NCI-H838 = test system: NCI-H838
How it was run: as §1

PC-14 = test system: PC-14
How it was run: as §1

SW 1573 = test system: SW 1573
How it was run: as §1

UMC-11 = test system: UMC-11
How it was run: as §1

Cc1sc2c(c1C)C(c1ccc(Cl)cc1)=N[C@@H](CC(=O)OC(C)(C)C)c1nnc(C)n1-2 [JQ1] + CC(C)C[C@H](NC(=O)[C@H](Cc1ccccc1)NC(=O)c1cnccn1)B(O)O [Bortezomib] (partner 0.002 µM)
relative viability (ABC-1; first compound 0.04 µM): 0.306
relative viability (ABC-1; first compound 0.1265 µM): 0.233
relative viability (ABC-1; first compound 0.4 µM): 0.329
relative viability (ABC-1; first compound 1.265 µM): 0.332
relative viability (ABC-1; first compound 4 µM): 0.272
relative viability (COR-L23; first compound 0.04 µM): 0.981
relative viability (COR-L23; first compound 0.1265 µM): 0.673
relative viability (COR-L23; first compound 0.4 µM): 0.792
relative viability (COR-L23; first compound 1.265 µM): 0.579
relative viability (COR-L23; first compound 4 µM): 0.17
relative viability (EPLC-272H; first compound 0.04 µM): 0.915
relative viability (EPLC-272H; first compound 0.1265 µM): 0.911
relative viability (EPLC-272H; first compound 0.4 µM): 0.989
relative viability (EPLC-272H; first compound 1.265 µM): 0.414
relative viability (EPLC-272H; first compound 4 µM): 0.367
relative viability (HARA; first compound 0.04 µM): 1.08
relative viability (HARA; first compound 0.1265 µM): 0.725
relative viability (HARA; first compound 0.4 µM): 0.611
relative viability (HARA; first compound 1.265 µM): 0.433
relative viability (HARA; first compound 4 µM): 0.173
relative viability (HCC-15; first compound 0.04 µM): 0.958
relative viability (HCC-15; first compound 0.4 µM): 0.98
relative viability (HCC-15; first compound 1.265 µM): 0.705
relative viability (HCC-15; first compound 4 µM): 0.628
relative viability (HCC-44; first compound 0.04 µM): 0.941
relative viability (HCC-44; first compound 0.1265 µM): 0.702
relative viability (HCC-44; first compound 0.4 µM): 0.744
relative viability (HCC-44; first compound 1.265 µM): 0.461
relative viability (HCC-44; first compound 4 µM): 0.224
relative viability (HOP-62; first compound 0.04 µM): 0.447
relative viability (HOP-62; first compound 0.1265 µM): 0.641
relative viability (HOP-62; first compound 0.4 µM): 0.515
relative viability (HOP-62; first compound 1.265 µM): 0.11
relative viability (HOP-62; first compound 4 µM): 0.111
relative viability (LC-2-ad; first compound 0.04 µM): 0.853
relative viability (LC-2-ad; first compound 0.1265 µM): 0.391
relative viability (LC-2-ad; first compound 0.4 µM): 0.787
relative viability (LC-2-ad; first compound 1.265 µM): 0.131
relative viability (LC-2-ad; first compound 4 µM): 0.109
relative viability (LU99A; first compound 0.04 µM): 1.32
relative viability (LU99A; first compound 0.1265 µM): 0.8
relative viability (LU99A; first compound 0.4 µM): 0.802
relative viability (LU99A; first compound 1.265 µM): 0.426
relative viability (LU99A; first compound 4 µM): 0.265
relative viability (NCI-H1355; first compound 0.04 µM): 1.17
relative viability (NCI-H1355; first compound 0.1265 µM): 1.07
relative viability (NCI-H1355; first compound 0.4 µM): 1.05
relative viability (NCI-H1355; first compound 1.265 µM): 0.86
relative viability (NCI-H1355; first compound 4 µM): 0.669
relative viability (NCI-H1651; first compound 0.04 µM): 0.919
relative viability (NCI-H1651; first compound 0.1265 µM): 0.781
relative viability (NCI-H1651; first compound 0.4 µM): 0.842
relative viability (NCI-H1651; first compound 1.265 µM): 0.9
relative viability (NCI-H1651; first compound 4 µM): 0.635
relative viability (NCI-H1915; first compound 0.04 µM): 1.02
relative viability (NCI-H1915; first compound 0.1265 µM): 0.706
relative viability (NCI-H1915; first compound 0.4 µM): 0.961
relative viability (NCI-H1915; first compound 1.265 µM): 0.678
relative viability (NCI-H1915; first compound 4 µM): 0.642
relative viability (NCI-H1993; first compound 0.04 µM): 1.08
relative viability (NCI-H1993; first compound 0.1265 µM): 1.13
relative viability (NCI-H1993; first compound 0.4 µM): 1.04
relative viability (NCI-H1993; first compound 1.265 µM): 0.738
relative viability (NCI-H1993; first compound 4 µM): 0.458
relative viability (NCI-H2023; first compound 0.04 µM): 0.966
relative viability (NCI-H2023; first compound 0.1265 µM): 0.57
relative viability (NCI-H2023; first compound 0.4 µM): 0.437
relative viability (NCI-H2023; first compound 1.265 µM): 0.263
relative viability (NCI-H2023; first compound 4 µM): 0.193
relative viability (NCI-H2085; first compound 0.04 µM): 0.999
relative viability (NCI-H2085; first compound 0.1265 µM): 0.861
relative viability (NCI-H2085; first compound 0.4 µM): 0.893
relative viability (NCI-H2085; first compound 1.265 µM): 0.61
relative viability (NCI-H2085; first compound 4 µM): 0.564
relative viability (NCI-H2126; first compound 0.04 µM): 1.08
relative viability (NCI-H2126; first compound 0.1265 µM): 1.01
relative viability (NCI-H2126; first compound 0.4 µM): 1.14
relative viability (NCI-H2126; first compound 1.265 µM): 0.981
relative viability (NCI-H2126; first compound 4 µM): 0.966
relative viability (NCI-H2347; first compound 0.04 µM): 1.13
relative viability (NCI-H2347; first compound 0.1265 µM): 0.934
relative viability (NCI-H2347; first compound 0.4 µM): 0.841
relative viability (NCI-H2347; first compound 1.265 µM): 0.564
relative viability (NCI-H2347; first compound 4 µM): 0.404
relative viability (NCI-H650; first compound 0.04 µM): 0.742
relative viability (NCI-H650; first compound 0.1265 µM): 0.351
relative viability (NCI-H650; first compound 0.4 µM): 0.432
relative viability (NCI-H650; first compound 1.265 µM): 0.183
relative viability (NCI-H650; first compound 4 µM): 0.184
relative viability (NCI-H838; first compound 0.04 µM): 0.69
relative viability (NCI-H838; first compound 0.1265 µM): 0.426
relative viability (NCI-H838; first compound 0.4 µM): 0.31
relative viability (NCI-H838; first compound 1.265 µM): 0.208
relative viability (NCI-H838; first compound 4 µM): 0.154
relative viability (PC-14; first compound 0.04 µM): 0.811
relative viability (PC-14; first compound 0.1265 µM): 0.901
relative viability (PC-14; first compound 0.4 µM): 0.888
relative viability (PC-14; first compound 1.265 µM): 0.346
relative viability (PC-14; first compound 4 µM): 0.201
relative viability (SW 1573; first compound 0.04 µM): 1.13
relative viability (SW 1573; first compound 0.1265 µM): 1.03
relative viability (SW 1573; first compound 0.4 µM): 0.863
relative viability (SW 1573; first compound 1.265 µM): 0.582
relative viability (SW 1573; first compound 4 µM): 0.351
relative viability (UMC-11; first compound 0.04 µM): 0.708
relative viability (UMC-11; first compound 0.1265 µM): 0.522
relative viability (UMC-11; first compound 0.4 µM): 0.367
relative viability (UMC-11; first compound 1.265 µM): 0.216
relative viability (UMC-11; first compound 4 µM): 0.136
